Consider one compound from PubChem BioAssay AID652059 (Broad Institute, 2013).

For the assay, the system named is D54 ERlucT glioma cells, NLG luciferase reporter, 24 h. Briefly: blockers of NLG in glioma reporter line – cell-based, D54 ERlucT glioma, luciferase, dry powder, set 5, dose response (AID 652059).

As to `CC(=O)N[C@H]1[C@@H](O[C@@H]2OC(C[C@@H](O)C3O[C@@H](n4ccc(=O)[nH]c4=O)[C@H](O)[C@@H]3O)[C@H](O)[C@H](O)[C@H]2NC(=O)/C=C/CCCCCCCCCCC(C)C)O[C@H](CO)[C@@H](O)[C@@H]1O` (stereo partly specified), the AC40 is 520 nM.
